Test results reported in the NIST ThermoML archive (doi:10.1021/je050116g).

Experiments:
[1] = relative permittivity at various frequencies (dimensionless); xn = mol fraction of the nth substance listed; settings: 298.15 K, 101.33 kPa, Liquid, Frequency=0.03 MHz, Parallel plate capacitor
[2] = xn = mol fraction of the nth substance listed; settings: 298.15 K, 101.33 kPa, Liquid
[3] = 298.15 K; 101.33 kPa; Liquid

CCCCCCO [hexan-1-ol] + CCCCCCCCCCCC
Settings	mass density [kg/m3]	relative permittivity
[1], x1 = 0.000504	–	2.00799
[1], x1 = 0.001087	–	2.00873
[1], x1 = 0.001795	–	2.00963
[1], x1 = 0.002783	–	2.01089
[1], x1 = 0.004043	–	2.0125
[1], x1 = 0.005459	–	2.0143
[1], x1 = 0.006744	–	2.0159
[1], x1 = 0.008507	–	2.01802
[1], x1 = 0.01046	–	2.02024
[1], x1 = 0.01278	–	2.02269
[1], x1 = 0.01656	–	2.02639
[1], x1 = 0.02	–	2.02952
[1], x1 = 0.02535	–	2.03412
[1], x1 = 0.03116	–	2.03887
[1], x1 = 0.03741	–	2.04388
[1], x1 = 0.04472	–	2.0497
[1], x1 = 0.05324	–	2.05652
[1], x1 = 0.06176	–	2.06346
[1], x1 = 0.07197	–	2.072
[1], x1 = 0.08324	–	2.08177
[1], x1 = 0.0941	–	2.09164
[1], x1 = 0.1052	–	2.10222
[2], x1 = 0.00175	745.477	–
[2], x1 = 0.0046	745.539	–
[2], x1 = 0.00826	745.625	–
[2], x1 = 0.01788	745.888	–
[2], x1 = 0.02646	746.157	–
[2], x1 = 0.03537	746.455	–
[2], x1 = 0.04959	746.947	–
[2], x1 = 0.0656	747.525	–
[2], x1 = 0.07934	748.03	–
[2], x1 = 0.09708	748.704	–

CO [methanol]
Settings	mass density [kg/m3]
[3]	786.538

CCCCCCCCCO [nonan-1-ol]
Settings	mass density [kg/m3]
[3]	824.263

CCCCCCCCCO [nonan-1-ol] + CCCCCCCCCCCC
[2]
Settings	mass density [kg/m3]
x1 = 0.00099	745.467
x1 = 0.0047	745.637
x1 = 0.00777	745.786
x1 = 0.01456	746.133
x1 = 0.02651	746.79
x1 = 0.03533	747.291
x1 = 0.05117	748.212
x1 = 0.06465	749.011
x1 = 0.08043	749.97
x1 = 0.09832	751.064

CCCCCCCCO [octan-1-ol]
Settings	mass density [kg/m3]
[3]	821.694

CCCCCCCCO [octan-1-ol] + CCCCCCCCCCCC
Settings	mass density [kg/m3]	relative permittivity
[1], x1 = 0.000468	–	2.00782
[1], x1 = 0.000994	–	2.0085
[1], x1 = 0.00174	–	2.00946
[1], x1 = 0.002707	–	2.0107
[1], x1 = 0.003781	–	2.01209
[1], x1 = 0.005049	–	2.01375
[1], x1 = 0.006519	–	2.01566
[1], x1 = 0.008207	–	2.01774
[1], x1 = 0.009844	–	2.01966
[1], x1 = 0.01266	–	2.02275
[1], x1 = 0.01671	–	2.02679
[1], x1 = 0.02183	–	2.03146
[1], x1 = 0.02777	–	2.03652
[1], x1 = 0.03323	–	2.04101
[1], x1 = 0.0398	–	2.04628
[1], x1 = 0.04865	–	2.05338
[1], x1 = 0.05937	–	2.06205
[1], x1 = 0.06843	–	2.06953
[1], x1 = 0.0778	–	2.07741
[1], x1 = 0.08823	–	2.08648
[1], x1 = 0.09795	–	2.0952
[1], x1 = 0.111	–	2.10743
[2], x1 = 0.00204	745.513	–
[2], x1 = 0.00419	745.594	–
[2], x1 = 0.00734	745.718	–
[2], x1 = 0.01454	746.026	–
[2], x1 = 0.02591	746.56	–
[2], x1 = 0.03144	746.83	–
[2], x1 = 0.04912	747.72	–
[2], x1 = 0.06408	748.489	–
[2], x1 = 0.08146	749.394	–
[2], x1 = 0.1014	750.468	–

CCCCCO [pentan-1-ol]
Settings	mass density [kg/m3]
[3]	810.883

CCCO [propan-1-ol]
Settings	mass density [kg/m3]
[3]	799.564
